{"source": "patent US8821568B2", "about": "“Implant modified with non-hydroxylated vitamin D precursors” (Numat Biomedical S.L., priority 2008, dated 2014)", "assay_type_in_all_cases": "cell-based, mouse", "key": {"MC3T3-E1 cells [1]": {"system": "MC3T3-E1 cells", "test": "Cell number (DNA content) and cell covered surface on coated titanium implants", "conditions": "Ti implants, 48 h", "procedure": "Cells growing on the different surfaces were lysed after 48 hours of cell culture by a freeze-thaw method in deionized distilled water. Cell lysates were used for determination of DNA quantity using Hoechst 33258 fluorescence assay. Samples were mixed with 20 μg/ml of Hoechst 33258 fluorescence stain (Sigma, St. Quentin Fallavier, France) in THE buffer at pH 7.4 containing 10 mM Tris-HCl, 1 mM EDTA and 2 M NaCl. The intensity of fluorescence was measured at excitation and emission wavelengths of 356/465 nm using a multifunction microplate reader (Cary Eclipse fluorescence spectrophotometer, Agilent Technologies, Santa Clara, United States). Relative fluorescence units were correlated with the cell number using a linear standard curve.\nConfocal images were obtained of cells growing in the different treated surfaces at 48 hours of cell culture. […] Various images of each implant were taken with the confocal microscope (Leica DMI 4000B equipped with Leica TCS SPE laser system) by measuring fluorescence signal between 430-480 nm for DAPI and 500-525 nm for Phalloiding-FITC. […]\nQuantitation of the percentage of titanium surface covered with MC3T3-E1cells was achieved by analyzing the previous images with ImageJ software (Rasband, W. S., ImageJ, U. S. National Institutes of Health, Bethesda, Md., USA)."}, "MC3T3-E1 cells [2]": {"system": "MC3T3-E1 cells", "test": "ELISA of 25-D3 released to the culture media, coated titanium implants", "conditions": "Ti implants; 0.2 nmols; 48 h; UV exposure 15 minutes; vs ethanol-treated Ti samples", "procedure": "(§1) To test the effect of the surface modification, 96-well plates were used. Ti disks were placed into the wells and treatments and UV-activation were performed over there. Cells grown onto untreated polystyrene tissue culture plastic (TCP) were added as a control for all the experiments. Cells were seeded at a density of 30,000 cells/cm^2 and they were maintained in α-MEM supplemented with 10% FCS and antibiotics. Culture media was collected after 48 hours, to test cytotoxicity and the production of the hydroxylated form of vitamin D, 25-D3. Cells were harvested after two days of culture using Trizol reagent (Roche Diagnostics, Mannheim, Germany), to analyze gene expression of several osteoblast differentiation markers and enzymes involved in vitamin D synthesis using real-time RT-PCR. On the other hand, MC3T3-E1 cells were harvested after 21 days to measure calcium content and ALP activity in the cell monolayer.\n25-D3 released to the culture media after 2 days of treatment were analyzed by enzyme-linked immunosorbent assay (ELISA). Aliquots from the culture media were centrifuged at 1800 rpm for 5 minutes at 4° C. and supernatants were used for 25-D3 and determination following instructions described by the manufacturer (Immunodiagnostic Systems Ltd, Boldon, Tyne and Wear, UK)."}, "MC3T3-E1 cells [3]": {"system": "MC3T3-E1 cells", "test": "Calcium content (mineralization, ICP-AES) on coated titanium implants", "conditions": "Ti implants; 28 days; UV-treated compared to UV-untreated cells and control group", "procedure": "as §1, with “On the other hand, MC3T3-E1 cells were harvested after 21 days to measure calcium content and ALP activity in the cell monolayer.” left out\n[…] Cell lysates were put into freeze/thaw cycles (liquid nitrogen and 37° C. water bath) to improve protein recovery. […] ALP activity was calculated by measuring the cleavage of p-Nitrophenyl Phosphate (pNPP) (Sigma, St. Louis, Mo., USA) in a soluble yellow end product which absorbs at 405 nm. […] At this point, absorbance was read at 405 nm.\nTo determine calcium content samples were analyzed by inductively coupled plasma atomic emission spectrometry (Optima 5300 DV, PerkinElmer, Massachussetts, USA). […]"}}, "data": [{"smiles": "CC(C)CCC[C@@H](C)[C@H]1CC[C@H]2C3=CC=C4C[C@@H](O)CC[C@]4(C)[C@H]3CC[C@]12C", "note": "[7-DHC, 7-dehydrocholesterol]", "values": [{"measurement": "Cell number (DNA content)", "setting": "MC3T3-E1 cells [1]; 30 minutes of UV irradiation vs UV-untreated", "result": "significantly higher amount of cells"}, {"measurement": "Percentage of implant surface covered with cells", "setting": "MC3T3-E1 cells [1]; 30 minutes of UV irradiation vs without irradiation", "result": "significant greatest percentage"}, {"measurement": "25-D3 secretion to the cell culture media", "setting": "MC3T3-E1 cells [2]", "result": "increased 25-hydroxyvitamin D3 (25-D3) production"}, {"measurement": "Calcium content", "setting": "MC3T3-E1 cells [3]", "result": "significant increase"}]}]}
